The data set deals with PBS pH 7.4 stability, LC-MS/MS, 48 h. Description: Inhibitors of Human alpha-Glucosidase: PBS Stability Profiling. The following applies: at 20 µM; stronger effect = higher value. From the text:
Alpha-glucosidase is responsible for the hydrolysis of terminal, non-reducing 1,4-linked alpha-D-glucose residues, which releases alpha-D-glucose. It is a lysosomal hydrolase that is required for the degradation of a small percentage (1-3%) of cellular glycogen in humans. Deficiency of this enzyme results in glycogen-storage disease type II (GSDII), also referred to as Pompe disease, an autosomal recessive disorder. Structurally normal glycogen is accumulated in the lysosomes and cytoplasm in affected patients, primarily in muscle tissues. Excessive glycogen storage within lysosomes may interrupt normal functioning of other organelles and leads to cellular injury. In turn, this leads to enlargement and dysfunction of the entire organ involved (eg: cardiomyopathy and muscle weakness). The stability of the lead compound in PBS buffer is tested because this parameter has a significant impact on many ADME-concerned properties of drugs, such as uptake, distribution, transport, and eventually bioavailability. NIH Chemical Genomics Center [NCGC] NIH Molecular Libraries Probe Production Centers Network [MLPCN] […]
20uM of compound is incubated in PBS buffer at pH 7.4 at […]; the reference compound is procaine. Compounds are incubated at 37 deg C for the pre-determined time periods and the when aliquots are removed. Samples are analyzed with LC-MS/MS.

In the case of `CC(=O)c1ccc(N2CCN(S(=O)(=O)c3ccc4c(c3)CC(=O)N4)CC2)cc1`, the percent remaining is 100%.

(Values after PubChem BioAssay AID504681 (National Center for Advancing Translational Sciences (NCATS), 2011).)
